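Method: 48-hour compound exposure of cells in 96-well plates, five concentrations, linear interpolation of endpoints. GI50 = concentration required for 50% inhibition of growth.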 Activity calls are given as the source filed them. Cut-off read from the data, not from the text of the source: active = GI50 up to about 1.1 µM and inactive = higher.
Key:
Experiment in all cases: inhibition of tumour cell growth, NCI panel, 48 h
HOP-62 = test system: HOP-62
SK-MEL-28 = test system: SK-MEL-28
HCC 2998 = test system: HCC 2998
SW-620 = test system: SW-620
SK-MEL-5 = test system: SK-MEL-5
ACHN = test system: ACHN
SK-MEL-2 = test system: SK-MEL-2
OVCAR-4 = test system: OVCAR-4
NCI-H226 = test system: NCI-H226
U-251 = test system: U-251
A549 = test system: A549
OVCAR-3 = test system: OVCAR-3
NCI-H522 = test system: NCI-H522
RPMI-8226 = test system: RPMI-8226
HL-60 = test system: HL-60
HOP-92 = test system: HOP-92

`CC(=O)c1cc2c3c(c1)c1cc4c(cc1c(=O)n3CC2)OCO4` was tested, and the GI50 (HOP-62) was 44.5 µM (inactive), the GI50 (SK-MEL-28) was 65.3 µM (inactive) and the GI50 (HCC 2998) was > 100 µM (inactive). The GI50 (SW-620) was 7.78 µM (inactive), the GI50 (SK-MEL-5) was 31 µM (inactive) and the GI50 (ACHN) was 16.9 µM (inactive). The GI50 (SK-MEL-2) was > 100 µM (inactive), the GI50 (OVCAR-4) was 25.8 µM (inactive) and the GI50 (NCI-H226) was > 100 µM (inactive). For the same molecule, the GI50 (U-251) was 27 µM (inactive), the GI50 (A549) was 40.1 µM (inactive) and the GI50 (OVCAR-3) was 33.8 µM (inactive). The GI50 (NCI-H522) was 7.21 µM (inactive), the GI50 (RPMI-8226) was 17.6 µM (inactive) and the GI50 (HL-60) was 39.3 µM (inactive). For the same molecule, the GI50 (HOP-92) was 54.8 µM (inactive).

With `Cc1ccc(S(=O)(=O)N/N=C\c2c3ccccc3[n+](C)c3ccccc23)cc1` the GI50 (HOP-62) was 34.1 µM (inactive), the GI50 (SK-MEL-28) was 31.5 µM (inactive) and the GI50 (HCC 2998) was 92.7 µM (inactive). For the same molecule, the GI50 (SW-620) was 33.8 µM (inactive), the GI50 (SK-MEL-5) was 29.4 µM (inactive) and the GI50 (ACHN) was 41.9 µM (inactive). The GI50 (SK-MEL-2) was 43.8 µM (inactive), the GI50 (OVCAR-4) was 27.6 µM (inactive) and the GI50 (NCI-H226) was 25 µM (inactive). For the same molecule, the GI50 (U-251) was 24 µM (inactive), the GI50 (A549) was 20.8 µM (inactive) and the GI50 (OVCAR-3) was 26.1 µM (inactive). For the same molecule, the GI50 (NCI-H522) was 25.8 µM (inactive), the GI50 (RPMI-8226) was 29.8 µM (inactive) and the GI50 (HL-60) was 22 µM (inactive). For the same molecule, the GI50 (HOP-92) was 17.1 µM (inactive).

With `O=C(O/N=C1/CCCC/C1=C\c1ccccc1)c1ccc(Cl)cc1` the GI50 (HOP-62) was > 100 µM (inactive), the GI50 (SK-MEL-28) was > 100 µM (inactive) and the GI50 (HCC 2998) was 0.0177 µM (active). For the same molecule, the GI50 (SW-620) was > 100 µM (inactive), the GI50 (SK-MEL-5) was 89.7 µM (inactive) and the GI50 (ACHN) was > 100 µM (inactive). For the same molecule, the GI50 (SK-MEL-2) was > 100 µM (inactive), the GI50 (OVCAR-4) was 53 µM (inactive) and the GI50 (NCI-H226) was > 100 µM (inactive). For the same molecule, the GI50 (U-251) was 89.3 µM (inactive), the GI50 (A549) was > 100 µM (inactive) and the GI50 (OVCAR-3) was > 100 µM (inactive). The GI50 (NCI-H522) was 23.3 µM (inactive), the GI50 (RPMI-8226) was > 100 µM (inactive) and the GI50 (HL-60) was 24.7 µM (inactive). For the same molecule, the GI50 (HOP-92) was 40.9 µM (inactive).

With `CCN(CC)CCC(=O)Nc1ccc2c(c1)C(=O)c1ccc(NC(=O)CCN(CC)CC)cc1C2=O` the GI50 (HOP-62) was 5.37 µM (inactive), the GI50 (SK-MEL-28) was 12.2 µM (inactive) and the GI50 (HCC 2998) was > 100 µM (inactive). For the same molecule, the GI50 (SW-620) was 2.24 µM (inactive), the GI50 (SK-MEL-5) was 7.08 µM (inactive) and the GI50 (ACHN) was 4.07 µM (inactive). For the same molecule, the GI50 (SK-MEL-2) was 4.79 µM (inactive), the GI50 (OVCAR-4) was 4.63 µM (inactive) and the GI50 (NCI-H226) was 0.308 µM (active). The GI50 (U-251) was 9.18 µM (inactive), the GI50 (A549) was 5.18 µM (inactive) and the GI50 (NCI-H522) was 11.2 µM (inactive). The GI50 (RPMI-8226) was 4.17 µM (inactive), the GI50 (HL-60) was 4.23 µM (inactive) and the GI50 (HOP-92) was 12.8 µM (inactive).

For `CC1(C)OCN(c2ccc(N3CCOCC3)cc2)Cn2c1nc1ccccc12`, the GI50 (HOP-62) was > 100 µM (inactive), the GI50 (SK-MEL-28) was > 100 µM (inactive) and the GI50 (HCC 2998) was > 100 µM (inactive). The GI50 (SW-620) was 34.1 µM (inactive), the GI50 (ACHN) was 64 µM (inactive) and the GI50 (SK-MEL-2) was > 100 µM (inactive). The GI50 (OVCAR-4) was 29.6 µM (inactive), the GI50 (NCI-H226) was 55.3 µM (inactive) and the GI50 (U-251) was > 100 µM (inactive). The GI50 (A549) was > 100 µM (inactive), the GI50 (OVCAR-3) was > 100 µM (inactive) and the GI50 (NCI-H522) was > 100 µM (inactive). The GI50 (RPMI-8226) was 27.9 µM (inactive), the GI50 (HL-60) was 26.4 µM (inactive) and the GI50 (HOP-92) was > 100 µM (inactive).

`c1cnc2nc3n(c2c1)CSC3` was tested, and the GI50 (HOP-62) was > 100 µM (inactive), the GI50 (SK-MEL-28) was > 100 µM (inactive) and the GI50 (HCC 2998) was > 100 µM (inactive). The GI50 (SW-620) was > 100 µM (inactive), the GI50 (SK-MEL-5) was > 100 µM (inactive) and the GI50 (ACHN) was > 100 µM (inactive). The GI50 (SK-MEL-2) was > 100 µM (inactive), the GI50 (OVCAR-4) was > 100 µM (inactive) and the GI50 (NCI-H226) was > 100 µM (inactive). The GI50 (U-251) was > 100 µM (inactive), the GI50 (A549) was > 100 µM (inactive) and the GI50 (OVCAR-3) was > 100 µM (inactive). The GI50 (NCI-H522) was > 100 µM (inactive), the GI50 (RPMI-8226) was > 100 µM (inactive) and the GI50 (HL-60) was > 100 µM (inactive). The GI50 (HOP-92) was > 100 µM (inactive).

With `CC1(Cl)C(=O)NC(=O)N([C@H]2C[C@H](O)[C@@H](CO)O2)C1N=[N+]=[N-]` (stereo not given in full) the GI50 (HOP-62) was > 100 µM (inactive), the GI50 (SK-MEL-28) was > 61.1 µM (inactive) and the GI50 (HCC 2998) was > 100 µM (inactive). For the same molecule, the GI50 (SW-620) was > 100 µM (inactive), the GI50 (SK-MEL-5) was > 100 µM (inactive) and the GI50 (ACHN) was > 100 µM (inactive). For the same molecule, the GI50 (SK-MEL-2) was > 100 µM (inactive), the GI50 (OVCAR-4) was > 96.2 µM (inactive) and the GI50 (NCI-H226) was > 100 µM (inactive). For the same molecule, the GI50 (U-251) was > 100 µM (inactive), the GI50 (A549) was > 100 µM (inactive) and the GI50 (OVCAR-3) was > 100 µM (inactive). The GI50 (NCI-H522) was > 100 µM (inactive), the GI50 (RPMI-8226) was > 100 µM (inactive) and the GI50 (HL-60) was > 100 µM (inactive). The GI50 (HOP-92) was > 100 µM (inactive).

Reference: ChEMBL document CHEMBL1201862, “PubChem BioAssay data set” (2004)
